Data taken from PMC10331583, “Control of fibrosis with enhanced safety via asymmetric inhibition of prolyl‐tRNA synthetase 1” (EMBO Molecular Medicine, 2023).
Values joined by “and” are separate entries in the source; they are usually repeats but may differ in a detail not shown here. Identical values can stand only once.

Tests used:
[1] = tested on: WI‐26 VA4 cells stably expressing EV (empty vector); assay: Collagen ELISA in cells stably expressing EV; conditions: for Collagen level, average: average of 4 experiments; for Collagen level, single replicates: replicates of Experiments #1-#4
[2] = tested on: WI‐26 VA4 cells; assay: Immunoblot of cellular protein levels with different proline content; type: cell-based, human; conditions: Fig 2A
Procedure: The levels of proteins were determined by immunoblot assay. […] The lowest concentration at which protein levels started to decrease was normalized by IC50 values for collagen level and used as the y‐axis value. […] The slope and R^2 value were calculated using GraphPad Prism 7.0. […] The activation of the TGF‐β pathway was determined by monitoring the phosphorylation of SMAD2. Immunoblot images are representative of three biologically independent experiments. • The band intensities of the immunoblot images in (C) were quantified using ImageJ (n = 3; One‐way ANOVA; *P < 0.05, **P < 0.01, ***P < 0.001; mean ± SEM). Source data are available online for this figure.

[3] = biological target: T1, PARS1 WT (Homo sapiens, UniProt P07814); assay: Microscale thermophoresis (MST), PARS1 WT; type: binding; conditions: for Fraction bound: single replicates
T1 construct: His‐PARS1 (1001–1,512 aa); made in house; host or cells: Escherichia coli
T1 sequence (P07814 1001-1512 limits assumed): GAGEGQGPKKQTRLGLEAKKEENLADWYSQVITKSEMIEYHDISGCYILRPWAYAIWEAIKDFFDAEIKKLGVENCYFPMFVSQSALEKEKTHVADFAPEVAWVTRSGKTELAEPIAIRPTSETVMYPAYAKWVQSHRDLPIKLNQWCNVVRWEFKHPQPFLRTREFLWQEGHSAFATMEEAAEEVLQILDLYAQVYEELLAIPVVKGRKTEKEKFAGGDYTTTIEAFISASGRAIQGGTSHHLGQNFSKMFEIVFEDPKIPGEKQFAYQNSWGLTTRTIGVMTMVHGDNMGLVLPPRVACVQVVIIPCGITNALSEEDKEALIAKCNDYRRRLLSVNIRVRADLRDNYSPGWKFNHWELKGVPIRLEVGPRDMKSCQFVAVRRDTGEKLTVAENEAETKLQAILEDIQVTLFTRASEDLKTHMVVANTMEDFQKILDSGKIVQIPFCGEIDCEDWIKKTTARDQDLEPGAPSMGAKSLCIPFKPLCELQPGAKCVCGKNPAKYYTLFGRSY

[4] = tested on: WI‐26 VA4 cells stably expressing PARS1 FA/EA/RL mutant; assay: Collagen ELISA in cells stably expressing PARS1 mutant; conditions: for Collagen level, average: average of 4 experiments; for Collagen level, single replicates: replicates of Experiments #1-#4
[5] = Homo sapiens, WI26VA4, read-out: IC50, collagen level
[6] = WI-26 VA4 Flag-PARS1 FA/EA/RL, 0.3 nM
[7] = WI-26 VA4 Flag-PARS1 FA/EA/RL, 1 nM
[8] = WI-26 VA4 Flag-PARS1 FA/EA/RL, 3 nM
[9] = WI-26 VA4 Flag-PARS1 FA/EA/RL, 10 nM
[10] = WI-26 VA4 Flag-PARS1 FA/EA/RL, 30 nM
[11] = WI-26 VA4 Flag-PARS1 FA/EA/RL, 100 nM
[12] = WI-26 VA4 Flag-PARS1 FA/EA/RL, 300 nM
[13] = WI-26 VA4 Flag-PARS1 FA/EA/RL, 1000 nM

O=C(CC1NCCCC1O)Cn1cnc2cc(Br)c(Cl)cc2c1=O (centres unmarked) [HF, Halofuginone, reference compound]
IC50 [1, 5]: 15.2 nM | Collagen level, average ([1]; WI-26 VA4 EV, 0.3 nM): 105.43 % of control | Collagen level, single replicates ([1]; WI-26 VA4 EV, 0.3 nM): 107.71 % of control and 102.31 % of control and 99.56 % of control and 107.96 % of control and 119.37 % of control and 97.79 % of control and 105.72 % of control and 112.41 % of control and 97.00 % of control and 105.68 % of control and 103.25 % of control | Collagen level, average ([1]; WI-26 VA4 EV, 1 nM): 98.88 % of control | Collagen level, single replicates ([1]; WI-26 VA4 EV, 1 nM): 99.81 % of control and 96.49 % of control and 94.72 % of control and 113.88 % of control and 89.98 % of control and 98.97 % of control and 99.45 % of control and 90.47 % of control and 100.22 % of control and 101.63 % of control and 90.65 % of control and 110.29 % of control | Collagen level, average ([1]; WI-26 VA4 EV, 3 nM): 98.91 % of control | Collagen level, single replicates ([1]; WI-26 VA4 EV, 3 nM): 95.48 % of control and 110.90 % of control and 101.31 % of control and 98.76 % of control and 84.68 % of control and 101.40 % of control and 94.43 % of control and 83.51 % of control and 102.77 % of control and 119.57 % of control and 100.02 % of control and 94.04 % of control | Collagen level, average ([1]; WI-26 VA4 EV, 10 nM): 67.80 % of control | Collagen level, single replicates ([1]; WI-26 VA4 EV, 10 nM): 70.56 % of control and 73.60 % of control and 52.16 % of control and 80.52 % of control and 55.32 % of control and 68.13 % of control and 71.03 % of control and 51.88 % of control and 67.22 % of control and 78.89 % of control and 53.10 % of control and 91.18 % of control | Collagen level, average ([1]; WI-26 VA4 EV, 30 nM): 31.49 % of control | Collagen level, single replicates ([1]; WI-26 VA4 EV, 30 nM): 29.59 % of control and 29.66 % of control and 28.02 % of control and 34.01 % of control and 34.11 % of control and 31.81 % of control and 31.01 % of control and 33.29 % of control and 33.04 % of control and 33.86 % of control and 29.96 % of control and 29.53 % of control | Collagen level, average ([1]; WI-26 VA4 EV, 100 nM): 6.34 % of control | Collagen level, single replicates ([1]; WI-26 VA4 EV, 100 nM): 7.42 % of control and 5.23 % of control and 5.03 % of control and 5.46 % of control and 5.70 % of control and 6.01 % of control and 7.87 % of control and 7.08 % of control and 6.26 % of control and 7.39 % of control and 6.77 % of control and 5.82 % of control | Collagen level, average ([1]; WI-26 VA4 EV, 300 nM): 4.49 % of control | Collagen level, single replicates ([1]; WI-26 VA4 EV, 300 nM): 4.87 % of control and 3.68 % of control and 2.38 % of control and 3.50 % of control and 4.00 % of control and 5.84 % of control and 5.04 % of control and 4.31 % of control and 5.22 % of control and 6.88 % of control and 2.82 % of control and 5.35 % of control | Collagen level, average ([1]; WI-26 VA4 EV, 1000 nM): 5.68 % of control | Collagen level, single replicates ([1]; WI-26 VA4 EV, 1000 nM): 6.31 % of control and 4.51 % of control and 4.24 % of control and 5.46 % of control and 6.24 % of control and 6.40 % of control and 5.99 % of control and 5.56 % of control and 5.73 % of control and 6.61 % of control and 4.97 % of control and 6.15 % of control | HillSlope, collagen level ([1]; WI-26 VA4 EV, four-parameter fit): -1.549 | LogIC50, collagen level ([1]; WI-26 VA4 EV, log of concentration in nM, four-parameter fit): 1.181 | effective dose for decreasing general proteins (SMAD2, AIMP2, AMPKα, cyclin D1) compared with COL1A1 [2]: about three times | Fraction bound, average ([3]; Dose 3.0518 nM): -0.0712 | Fraction bound ([3]; Dose 3.0518 nM): -0.0993 and -0.0066 and -0.1077 | Fraction bound, average ([3]; Dose 6.1035 nM): -0.0015 | Fraction bound ([3]; Dose 6.1035 nM): 0.0287 and -0.0242 and -0.0091 | Fraction bound, average ([3]; Dose 12.207 nM): 0.0765 | Fraction bound ([3]; Dose 12.207 nM): 0.1266 and 0.0543 and 0.0485 | Fraction bound, average ([3]; Dose 24.4141 nM): 0.1050 | Fraction bound ([3]; Dose 24.4141 nM): 0.1952 and 0.1143 and 0.0054 | Fraction bound, average ([3]; Dose 48.8281 nM): 0.1434 | Fraction bound ([3]; Dose 48.8281 nM): 0.1825 and 0.1031 and 0.1448 | Fraction bound, average ([3]; Dose 97.6563 nM): 0.2466 | Fraction bound ([3]; Dose 97.6563 nM): 0.2751 and 0.2161 and 0.2485 | Fraction bound, average ([3]; Dose 195.312 nM): 0.5229 | Fraction bound ([3]; Dose 195.312 nM): 0.5425 and 0.5488 and 0.4774 | Fraction bound, average ([3]; Dose 390.625 nM): 0.7387 | Fraction bound ([3]; Dose 390.625 nM): 0.7958 and 0.7241 and 0.6962 | Fraction bound, average ([3]; Dose 781.25 nM): 0.9030 | Fraction bound ([3]; Dose 781.25 nM): 0.8890 and 0.8991 and 0.9209 | Fraction bound, average ([3]; Dose 1562.5 nM): 0.9612 | Fraction bound ([3]; Dose 1562.5 nM): 0.9380 and 1.0072 and 0.9382 | Fraction bound, average ([3]; Dose 3125 nM): 0.9287 | Fraction bound ([3]; Dose 3125 nM): 0.9278 and 0.9164 and 0.9420 | Fraction bound, average ([3]; Dose 6250 nM): 0.9609 | Fraction bound ([3]; Dose 6250 nM): 0.9251 and 0.9572 and 1.0004 | Fraction bound, average ([3]; Dose 12500 nM): 0.9979 | Fraction bound ([3]; Dose 12500 nM): 0.9525 and 1.0119 and 1.0291 | Fraction bound, average ([3]; Dose 25000 nM): 1.0497 | Fraction bound ([3]; Dose 25000 nM): 1.0026 and 1.0240 and 1.1224 | Fraction bound, average ([3]; Dose 50000 nM): 0.9548 | Fraction bound ([3]; Dose 50000 nM): 0.8756 and 0.9971 and 0.9917 | Fraction bound, average ([3]; Dose 100000 nM): 1.0743 | Fraction bound ([3]; Dose 100000 nM): 1.0331 and 1.0480 and 1.1418 | IC50 [4, 5]: 15.4 nM | Collagen level, average [4, 6]: 101.54 % of control | Collagen level, single replicates [4, 6]: 102.13 % of control and 120.79 % of control and 96.95 % of control and 94.78 % of control and 97.01 % of control and 91.61 % of control and 85.22 % of control and 99.08 % of control and 88.51 % of control and 103.40 % of control and 115.28 % of control and 123.69 % of control | Collagen level, average [4, 7]: 101.93 % of control | Collagen level, single replicates [4, 7]: 100.26 % of control and 124.52 % of control and 104.32 % of control and 114.35 % of control and 95.53 % of control and 102.09 % of control and 95.23 % of control and 96.53 % of control and 98.60 % of control and 104.60 % of control and 92.58 % of control and 94.60 % of control | Collagen level, average [4, 8]: 97.24 % of control | Collagen level, single replicates [4, 8]: 74.39 % of control and 119.08 % of control and 111.81 % of control and 77.98 % of control and 96.46 % of control and 94.83 % of control and 78.75 % of control and 99.39 % of control and 89.90 % of control and 103.30 % of control and 102.16 % of control and 118.87 % of control | Collagen level, average [4, 9]: 70.83 % of control | Collagen level, single replicates [4, 9]: 64.31 % of control and 91.60 % of control and 60.26 % of control and 74.23 % of control and 77.87 % of control and 69.39 % of control and 82.84 % of control and 75.26 % of control and 63.48 % of control and 78.01 % of control and 54.94 % of control and 57.79 % of control | Collagen level, average [4, 10]: 26.11 % of control | Collagen level, single replicates [4, 10]: 25.57 % of control and 24.68 % of control and 22.36 % of control and 32.03 % of control and 25.38 % of control and 25.85 % of control and 26.88 % of control and 24.32 % of control and 26.43 % of control and 20.94 % of control and 29.04 % of control and 29.85 % of control | Collagen level, average [4, 11]: 4.47 % of control | Collagen level, single replicates [4, 11]: 4.44 % of control and 3.82 % of control and 4.24 % of control and 4.79 % of control and 5.13 % of control and 4.94 % of control and 4.02 % of control and 4.80 % of control and 4.41 % of control and 3.44 % of control and 4.93 % of control and 4.63 % of control | Collagen level, average [4, 12]: 3.35 % of control | Collagen level, single replicates [4, 12]: 2.94 % of control and 2.13 % of control and 2.73 % of control and 2.78 % of control and 5.38 % of control and 5.19 % of control and 3.51 % of control and 3.53 % of control and 4.16 % of control and 2.06 % of control and 3.52 % of control and 2.22 % of control | Collagen level, average [4, 13]: 4.10 % of control | Collagen level, single replicates [4, 13]: 4.74 % of control and 3.22 % of control and 4.71 % of control and 3.16 % of control and 4.63 % of control and 4.53 % of control (2×) and 4.37 % of control and 4.67 % of control and 2.44 % of control and 4.55 % of control and 3.67 % of control | HillSlope, collagen level ([4]; WI-26 VA4 Flag-PARS1 FA/EA/RL, four-parameter fit): -1.829 | LogIC50, collagen level ([4]; WI-26 VA4 Flag-PARS1 FA/EA/RL, log of concentration in nM, four-parameter fit): 1.188
